In brackets after ≈: the same amount, converted by molar mass. Positions of bridges follow the written chain, without caps; N, C: chain ends. Non-standard residues stand in square brackets, D forms with d. Residues, ends and D or L forms follow the SMILES beside them. Cha = N[C@@H](CC1CCCCC1)C(=O)O; NMeNva = CCC[C@H](NC)C(=O)O; NMeC = CN[C@@H](CS)C(=O)O; NMeA = CN[C@@H](C)C(=O)O; dAbu = CC[C@@H](N)C(=O)O; dNMeA = CN[C@H](C)C(=O)O; Nva = CCC[C@H](N)C(=O)O; Abu = CC[C@H](N)C(=O)O; Nleu = CC(C)CNCC(=O)O; NPrGly = CCCNCC(=O)O; NEtG = CCNCC(=O)O
Key:
in vitro [1] = details: PAMPA
in vitro [2] = details: dog, pH 7.4
Protocol: We also tested the permeabilities of the pure compounds in a cell-based trans-well permeability assay using Mdr1 knockout Madin–Darby canine kidney (MDCK) cells which minimize the endogenous efflux activity of traditional MDCK cells.[54]
The gMDCKI cell line (overexpressed cell line of Madin -Darby Canine Kidney which acquired from the NIH)
maintained in DMEM medium supplemented with 1% pen -strep, 5 µg/mL Plasmocin, and 10% FBS under
standard culture conditions (37 °C, 95% humidity, and 5% CO2), were seeded (0.75 x 10^5 cells) on the HTS
Transwell-96 permeable support (Corning) to form a confluent monolayer for two days.
All experimental steps were fully automated on Hamilton Vantage. Compound stock solution (1 mM in
DMSO) was diluted (10 μM final in HBSS, pH 7.4) with Lucifer Yellow as leakage indicator (20 μM). After
washing with HBSS buffer, the solution of test compounds was added to the apical side of the monolayers.
The plate was incubated for 3 h at 37 °C. T0 samples (10 µL of the 10 µM compounds diluted solution with
LY) were transferred to a 96-well plate, and then 40 µL of HBSS was added. After 3 hours, 50 μL basolateral
samples in the receiving plate were transferred to a fresh 96-well plate and added 100 μL of IS solution
(Propranolol). LY were read by plate reader and the samples were analyzed by LC/MS/MS.
The apparent permeability coefficient (Papp) is calculated from the permeation rate and compound
concentration at t=0h and t=3h. Where:
dQ/dt: amount of product present in the basal (A-B) or apical (B-A) compartment as a function of time
A: area of transwell (cm2).
C0: initial concentration of product applied in the apical (A -B) or basal (B-A) compartment (nmol/ml).

in vitro [3] = details: PAMPA, pH 7.4, Permeability (Papp) PAMPA (mixture)
[4] = PAMPA, 10 µM, pH 7.4
physchem = details: pH 7.4, aqueous with cosolvent or surfactant or cyclodextrin, kinetic from dmso stock
Protocol: Kinetic Solubility PBS Protocol
4 µL of 10 mM compound in DMSO stock was added to 196 µL 1 X PBS pH 7.4 in a 96 -well microplate to
get a final concentration of 200 µM to shake for 24 hours at 1000 rpm. The sample was filtered sample
using a 96-Multiscreen HTS filter plate (Millipore MSSL BPC50) and a positive pressure manifold.

[5] = pH 7.4, Permeability (Papp) PAMPA (indiv.)

| Papp at 10 µM (in vitro [1]; pH 7.4, PAMPA Papp) [×10⁻⁶ cm/s] | Papp at 10 µM (in vitro [1]; pH 7.4, PAMPA Pe_avg) [×10⁻⁶ cm/s] | Papp A→B at 3 h, 10 µM (in vitro [2]) [×10⁻⁶ cm/s] | Papp at 3 h, 10 µM (in vitro [2]; MDCK) [×10⁻⁶ cm/s] | Papp at 10 µM (in vitro [3]) [×10⁻⁶ cm/s] | Papp at 10 µM (in vitro [1]; [5]) [×10⁻⁶ cm/s] | %R_avg [4] [%] | solubility kinetic at 24 h (physchem) [µM] | Papp A→B at 3 h, 10 µM (in vitro [2]; MDCK) [×10⁻⁶ cm/s] | Compound |
| --- | --- | --- | --- | --- | --- | --- | --- | --- | --- |
| 0.5 | 0.455 | 0.03 |  |  |  |  |  |  | CCOC(=O)[C@@H]1CSCC(=O)N[C@@H](CC)C(=O)N(CC(C)C)CC(=O)N[C@@H](CC(C)C)C(=O)N(C)[C@H](C)C(=O)N(C)[C@@H](C)C(=O)N[C@H](CC(C)C)C(=O)N(C)[C@H](C)C(=O)N[C@@H](CC(C)C)C(=O)N1C [B1-1L, O=C([C@@H](NC([C@H](N(C([C@H](NC([C@@H](N(C([C@H](N(C)C([C@@H](NC(CN1CC(C)C)=O)CC(C)C)=O)C)=O)C)C)=O)CC(C)C)=O)C)C)=O)CC(C)C)N([C@@H](CSCC(N[C@@H](CC)C1=O)=O)C(OCC)=O)C] ({CH2CO}-[Abu][Nleu]L[dNMeA][NMeA][dL][dNMeA]L[NMeC]-OEt; thioether N-9) |
| 1.5 |  | 0.48 | 0.5 |  |  |  |  |  | CCOC(=O)[C@@H]1CSCC(=O)N[C@H](CC)C(=O)N(CC(C)C)CC(=O)N[C@H](CC(C)C)C(=O)N(C)[C@H](C)C(=O)N(C)[C@@H](C)C(=O)N[C@H](CC(C)C)C(=O)N(C)[C@H](C)C(=O)N[C@@H](CC(C)C)C(=O)N1C [B1-3D, O=C([C@@H](NC([C@H](N(C([C@H](NC([C@@H](N(C([C@H](N(C)C([C@H](NC(CN1CC(C)C)=O)CC(C)C)=O)C)=O)C)C)=O)CC(C)C)=O)C)C)=O)CC(C)C)N([C@@H](CSCC(N[C@H](CC)C1=O)=O)C(OCC)=O)C] ({CH2CO}-[dAbu][Nleu][dL][dNMeA][NMeA][dL][dNMeA]L[NMeC]-OEt; thioether N-9) |
| 0.1 | 0.213 | 0.0274 |  |  |  |  |  |  | CCOC(=O)[C@@H]1CSCC(=O)N[C@H](CC)C(=O)N(CC(C)C)CC(=O)N[C@@H](CC(C)C)C(=O)N2CCC[C@@H]2C(=O)N(C)[C@@H](C)C(=O)N[C@H](CC(C)C)C(=O)N(C)[C@H](C)C(=O)N[C@@H](CC(C)C)C(=O)N1C [B1-4dP, O=C([C@@H](NC([C@H](N(C([C@H](NC([C@@H](N(C([C@@H]1N(CCC1)C([C@@H](NC(CN2CC(C)C)=O)CC(C)C)=O)=O)C)C)=O)CC(C)C)=O)C)C)=O)CC(C)C)N([C@@H](CSCC(N[C@H](CC)C2=O)=O)C(OCC)=O)C] ({CH2CO}-[dAbu][Nleu]L[dP][NMeA][dL][dNMeA]L[NMeC]-OEt; thioether N-9) |
| 0.7 | 0.738 | 0.39 | 0.4 |  |  |  |  |  | CCOC(=O)[C@@H]1CSCC(=O)N[C@H](CC)C(=O)N(CC(C)C)CC(=O)N[C@@H](CC(C)C)C(=O)N(C)[C@H](C)C(=O)N(C)[C@@H](C)C(=O)N[C@@H](CC(C)C)C(=O)N(C)[C@H](C)C(=O)N[C@@H](CC(C)C)C(=O)N1C [B1-6L, O=C([C@@H](NC([C@H](N(C([C@@H](NC([C@@H](N(C([C@H](N(C)C([C@@H](NC(CN1CC(C)C)=O)CC(C)C)=O)C)=O)C)C)=O)CC(C)C)=O)C)C)=O)CC(C)C)N([C@@H](CSCC(N[C@H](CC)C1=O)=O)C(OCC)=O)C] ({CH2CO}-[dAbu][Nleu]L[dNMeA][NMeA]L[dNMeA]L[NMeC]-OEt; thioether N-9) |
|  |  |  |  | 3 | 1.3 | 6.6 | 122 (≈ 123 µg/mL) | 8.4 | CCC[C@@H]1NC(=O)[C@H](C)N(C)C(=O)[C@H](CC(C)C)NC(=O)CSC[C@@H](C(=O)OCC)N(C)C(=O)[C@H](CC(C)C)NC(=O)[C@H](C)N(C)C(=O)[C@H](CC(C)C)NC(=O)CN(CCC)C(=O)[C@H]2CCCN2C1=O [LA07, O=C(N(C)[C@H](C(OCC)=O)CSCC(N[C@H](C(N(C)[C@@H](C)C(N[C@@H](CCC)C(N1[C@H](CCC1)C(N(CCC)CC(N[C@H]2CC(C)C)=O)=O)=O)=O)=O)CC(C)C)=O)[C@H](CC(C)C)NC([C@H](C)N(C)C2=O)=O] ({CH2CO}-L[NMeA][Nva][dP][NPrGly]L[NMeA]L[NMeC]-OEt; thioether N-9) |
|  |  |  |  |  | 0.2 | 7.5 | 10 (≈ 10.3 µg/mL) | 5.1 | CCC[C@@H]1NC(=O)[C@H](C)N(C)C(=O)[C@H](CC(C)C)NC(=O)CSC[C@@H](C(=O)OCC)N(C)C(=O)[C@H](CC(C)C)NC(=O)[C@H](C)N(C)C(=O)[C@H](CC2CCCCC2)NC(=O)CN(CC)C(=O)[C@H]2CCCN2C1=O [LA09, O=C(N(C)[C@H](C(OCC)=O)CSCC(N[C@H](C(N(C)[C@@H](C)C(N[C@@H](CCC)C(N1[C@H](CCC1)C(N(CC)CC(N[C@H]2CC3CCCCC3)=O)=O)=O)=O)=O)CC(C)C)=O)[C@H](CC(C)C)NC([C@H](C)N(C)C2=O)=O] ({CH2CO}-L[NMeA][Nva][dP][NEtG][Cha][NMeA]L[NMeC]-OEt; thioether N-9) |
| 3.1 |  | 3.15 | 3.2 |  | 2.2 |  | 132 (≈ 133 µg/mL) | 3.2 | CCC[C@@H]1NC(=O)CN(CCC)C(=O)[C@H](CC(C)C)NC(=O)CSC[C@@H](C(=O)OCC)N(C)C(=O)[C@H](CC(C)C)NC(=O)[C@H](C)N(C)C(=O)[C@H](CC(C)C)NC(=O)[C@H](C)N(C)C(=O)[C@H]2CCCN2C1=O [LB07, O=C(N(C)[C@H](C(OCC)=O)CSCC(N[C@H](C1=O)CC(C)C)=O)[C@H](CC(C)C)NC([C@H](C)N(C)C([C@H](CC(C)C)NC([C@H](C)N(C)C([C@@H]2N(C([C@H](CCC)NC(CN1CCC)=O)=O)CCC2)=O)=O)=O)=O] ({CH2CO}-L[NPrGly][Nva][dP][NMeA]L[NMeA]L[NMeC]-OEt; thioether N-9) |
|  |  |  |  |  | 1.4 | 6.4 | 19 (≈ 19.7 µg/mL) | 4.4 | CCC[C@@H]1NC(=O)CN(CC)C(=O)[C@H](CC(C)C)NC(=O)CSC[C@@H](C(=O)OCC)N(C)C(=O)[C@H](CC(C)C)NC(=O)[C@H](C)N(C)C(=O)[C@H](CC2CCCCC2)NC(=O)[C@H](C)N(C)C(=O)[C@H]2CCCN2C1=O [LB09, O=C(N(C)[C@H](C(OCC)=O)CSCC(N[C@H](C1=O)CC(C)C)=O)[C@H](CC(C)C)NC([C@H](C)N(C)C([C@H](CC2CCCCC2)NC([C@H](C)N(C)C([C@@H]3N(C([C@H](CCC)NC(CN1CC)=O)=O)CCC3)=O)=O)=O)=O] ({CH2CO}-L[NEtG][Nva][dP][NMeA][Cha][NMeA]L[NMeC]-OEt; thioether N-9) |
|  |  |  |  |  | 1.1 | 4.5 | 109 (≈ 111 µg/mL) | 3.9 | CCC[C@@H]1NC(=O)[C@H](C)N(C)C(=O)[C@H](CC(C)C)NC(=O)CSC[C@@H](C(=O)OCC)N(C)C(=O)[C@H](CC(C)C)NC(=O)[C@H](C)N(C)C(=O)[C@H](CC(C)C)NC(=O)[C@H](CCC)N(C)C(=O)[C@H]2CCCN2C1=O [LC07, O=C(N(C)[C@H](C(OCC)=O)CSCC(N[C@H](C(N(C)[C@@H](C)C(N[C@@H](CCC)C(N1[C@H](CCC1)C(N(C)[C@@H](CCC)C(N[C@H]2CC(C)C)=O)=O)=O)=O)=O)CC(C)C)=O)[C@H](CC(C)C)NC([C@H](C)N(C)C2=O)=O] ({CH2CO}-L[NMeA][Nva][dP][NMeNva]L[NMeA]L[NMeC]-OEt; thioether N-9) |

From paper PMC10885153, “Membrane Permeability in a Large Macrocyclic Peptide Driven by a Saddle-Shaped Conformation” (Journal of the American Chemical Society, 2024)
